Source: article PMC6736568, “Discovery of Novel Anti-cryptosporidial Activities From Natural Products by in vitro High-Throughput Phenotypic Screening” (Frontiers in Microbiology, 2019)
Read-outs that look alike come from different tables or passages of the source.

Assays:
[1] = system: HCT-8 host cells (Hs18S)
[2] = system: Cryptosporidium parvum; test: qRT-PCR assay of the growth of C. parvum in vitro in HCT-8 host cells (primary and secondary screening, EC50); type: cell-based; conditions: for % Inhibition (3.3 uM): secondary screening at 3.3 uM
[3] = primary screening at 10 uM, from Hs18S ΔCT
[4] = primary screening at 10 uM, treated vs control

Compound	Cytotoxicity (%) [1, 3] [%]	Hs18S ΔCT [1, 4]	Inhibition (%) ([2]; primary screening at 10 uM)	% Inhibition (3.3 uM) [2] [%]	Hs18S ΔCT [1]	Cytotoxicity (%) ([1]; 10 µM)	Inhibition (%) ([2]; 10 µM)
CNCC(=O)c1ccc(O)c(O)c1.Cl [ADRENOLONE HYDROCHLORIDE]	-16.6	-0.22	26.43				
POMIFERIN TRIMETHYL ETHER	11.4	0.17	-34.33				
CC1=CC2C(C(C)C)CCC(C)(O)C2CC1 (stereo not drawn) [CADIN-4-EN-10-OL]	-34.1	-0.42	-28.21				
COc1cc2occ(-c3ccc(OC)c(OC)c3OC)c(=O)c2cc1OC [6,7,2',3',4'-PENTAMETHOXYISOFLAVONE]	-30.1	-0.38	39.55				
C[C@]12CCC(=O)C=C1CC[C@@H]1[C@@H]2C(=O)C[C@@]2(C)[C@H]1CC[C@]2(O)C(=O)CO [CORTISONE]		-0.17	-10.93				
ABAMECTIN (avermectin B1a shown)	33.4	0.59	97.65	-19			
C[C@@]1(O)CCOC(=O)C1 [MEVALONIC ACID LACTONE]	16.5	0.26	26.69				
O=C(O)[C@@H]1CCCN1 [PROLINE (L)]					0.03	1.9	-22.72
O=C(O)CC[N+](=O)[O-] [BOVINOCIDIN]	-25.1	-0.32	41.04				
COc1c(-c2ccccc2)oc2cc(O)cc(O)c2c1=O [GALANGIN 3-O-METHYL ETHER]			-5.04			-45.3%	
CC1(C)C=Cc2c(c3c(c4c(=O)c(-c5ccc(O)cc5)coc24)OC(C)(C)CC3)O1 [ISOOSAJIN]	-18.5	-0.24	96.83	39			
CC(=O)Oc1cc2c(cc1OC(C)=O)[C@@H]1c3ccc(OC(C)=O)c(OC(C)=O)c3OC[C@]1(OC(C)=O)C2 [HAEMATOXYLIN PENTAACETATE]	12.3	0.19	-26.73				
COC(=O)C1=CO[C@@H](O[C@@H]2O[C@H](CO)[C@@H](O)[C@H](O)[C@H]2O)[C@H]2[C@@H]1C(=O)C[C@@H]2C [VERBENALIN]	81.7	2.45	-4.48				
COc1cc2c(cc1O)CCNC2C (stereo not drawn) [SALSOLINE]	-0.9	-0.01	-1.38				
C[C@@H]1CC[C@H]2[C@](C)(CO)[C@@H](O)CC[C@]2(C)[C@@]12CC[C@@](CO)(CCO)O2 [LAGOCHILIN]	34.1	0.60	9.20				
CC(=O)O[C@@H]1C[C@]2(C)[C@@H](C(C)=O)CC[C@H]2[C@@H]2CCC3=CC(=O)CC[C@]3(C)[C@H]21 [11a-ACETOXYPROGESTERONE]	-16.6	-0.22	10.83				
O=C[C@H](O)[C@H](O)CO [ERYTHROSE]	14.6	0.23	57.20				
CC1(C)[C@@H](O[C@H]2O[C@H](C(=O)O)[C@@H](O)[C@H](O)[C@H]2O[C@@H]2O[C@H](C(=O)O)[C@@H](O)[C@H](O)[C@H]2O)CC[C@]2(C)[C@H]3C(=O)C=C4[C@@H]5C[C@@](C)(C(=O)O)CC[C@]5(C)CC[C@@]4(C)[C@]3(C)CC[C@@H]12.N [GLYCYRRHIZIC ACID, AMMONIUM SALT]	-43.6	-0.52	1.41				

Compound	Cytotoxicity (%) [1, 3] [%]	Hs18S ΔCT [1, 4]	Inhibition (%) ([2]; primary screening at 10 uM)	% Inhibition (3.3 uM) [2] [%]	Hs18S ΔCT [1]	Cytotoxicity (%) ([1]; 10 µM)	Inhibition (%) ([2]; 10 µM)
CC(=O)O[C@H]1C[C@@H](OC(C)=O)C(C)(C)C2CC(=O)[C@]3(C)C(CC[C@@]4(C)[C@H](c5ccoc5)OC(=O)[C@H]5O[C@]543)[C@]21C (stereo partly drawn) [7-DEACETOXY-7-OXOKHIVORIN]	13.5	0.21	40.16				
COc1cc2cc3c4cc(OC)c(OC)cc4cc[n+]3c(C)c2cc1OC.[Cl-] [CORALYNE CHLORIDE]	-23.6	-0.31	-5.22				
C[N+](C)(C)CCO.[Cl-] [CHOLINE CHLORIDE]			20.98		0.33	20.6	
C[C@]12C=CC(=O)C=C1CC[C@@H]1[C@@H]2CC[C@]2(C)C(=O)CC[C@@H]12 [ANDROSTA-1,4-DIEN-3,17-DIONE]	0.7	0.01	15.07				
CS(C)(=O)=O [DIMETHYLSULFONE]	46.5	0.90	65.78	61			
CCC(C)C(NC)C(=O)O (stereo not drawn) [N-METHYLISOLEUCINE]			-3.51		-0.07	-5.2	
N[C@@H](CSCSC[C@H](N)C(=O)O)C(=O)O [DJENKOLIC ACID]	0.2	0.00	23.33				
CC(=O)OC1CCC2(C)C(CC(OC(C)=O)C3(C)C4=CC(=O)OC(c5ccoc5)C4(C)CCC23)C1(C)C (stereo not drawn) [3alpha-ACETOXYDIHYDRODEOXYGEDUNIN]		-0.24		25			
N[C@@H]1CONC1=O [CYCLOSERINE (D)]	-30.0	-0.38	-10.45				
CCCCCCCCCCCCCCCCC(C(=O)O)C(O)(CC(=O)O)C(=O)O (stereo not drawn) [AGARIC ACID]	18.9	0.30	-4.50				
C=C1CCC(C2CC(=O)OC2=O)C(=O)CCC2C1CC2(C)C (stereo not drawn)	-6.8	-0.09	23.70				
CC(C)CCC[C@@H](C)[C@H]1CC[C@H]2[C@@H]3CC[C@H]4C[C@@H](O)CC[C@]4(C)[C@H]3CC[C@]12C [5alpha-CHOLESTANOL]	-2.4	-0.03	-23.23				
CC(=O)c1c(O)cc(O)cc1O [PHLORACETOPHENONE]	26.5	0.44	-25.30				
O=C(/C=C/c1ccc(O)cc1)c1ccccc1O [2',4-DIHYDROXYCHALCONE]	8.3	0.13	-21.40				
CC1(C)CC2C1CC[C@]1(C)CCC3C(C(=O)O)CC(=O)O[C@@]32C1 (stereo partly drawn) [3-HYDROXY-4-(SUCCIN-2-YL)-CARYOLANE delta-LACTONE]	28.8	0.49	51.45				
OC[C@H]1O[C@H](O[C@H]2[C@H](O)[C@@H](O)[C@H](O)O[C@@H]2CO)[C@H](O)[C@@H](O)[C@@H]1O [D-(+)-MALTOSE]		-0.19	55.12				
COC(=O)/C(C)=C\CC12OC(C)(C)C3CC(C=C4C(=O)c5c(c(CCC(C)(C)Cl)c6c(c5OC)C5CC(C)(CCC5=C(C)C)O6)OC431)C2=O (stereo not drawn) [DIMETHYL GAMBOGINATE]	79.7	2.30	93.45	47			
CC(=O)O.Cc1cc2c(C(C)C)c(O)c(O)c(C=O)c2c(O)c1-c1c(C)cc2c(C(C)C)c(O)c(O)c(C=O)c2c1O [GOSSYPOL-ACETIC ACID COMPLEX]	-7.1	-0.10	-21.55				
